pIC50: −log10 of the molar value.
Legend:
[1] = test system: Leishmania donovani; assay: Antileishmanial activity against Leishmania donovani MHOM/SD/62/1S-CL2D LdBOB amastigotes harboring eGFP infected in human THP1 cells assessed as reduction in number of amastigotes per cell after 96 hrs by DAPI staining based microscopic analysis; assay type: functional, organism-based; details: THP-1, 96 h
[2] = Cytotoxicity against human HepG2 cells after 48 hrs by CellTiter-Glo cell viability assay; assay type: cell-based
[3] = test system: H9c2; assay: Cytotoxicity against rat H9c2 cells infected with Trypanosoma cruzi Tulahuen amastigote forms assessed as reduction in cell number after 72 hrs by DRAQ5 DNA dye based confocal microscopic analysis; details: H9c2, 72 h
[4] = test system: THP-1; assay: Cytotoxicity against human THP1 cells infected with Leishmania donovani MHOM/SD/62/1S-CL2D LdBOB amastigotes harboring eGFP assessed as reduction in cell number after 96 hrs by DAPI staining based microscopic analysis; details: THP-1, 96 h
[5] = test system: Leishmania donovani; assay: Antileishmanial activity against Leishmania donovani MHOM/SD/62/1S-CL2D LdBOB axenic amastigotes harboring eGFP after 72 hrs by resazurin dye based fluorescence assay; assay type: functional, organism-based
[6] = test system: Leishmania donovani; assay: Antileishmanial activity against Leishmania donovani MHOM/SD/62/1S-CL2D LdBOB amastigotes harboring eGFP infected in human THP1 cells assessed as reduction in infected cells after 96 hrs by DAPI staining based microscopic analysis; assay type: functional, organism-based; details: THP-1, 96 h
[7] = test system: Trypanosoma brucei; assay: Antitrypanosomal activity against Trypanosoma brucei Lister 427 bloodstream forms after 48 hrs by resazurin dye based fluorescence assay; assay type: functional, organism-based; details: Lister 427, 48 h
[8] = test system: Trypanosoma cruzi; assay: Antitrypanosomal activity against Trypanosoma cruzi Tulahuen amastigote forms infected in rat H9c2 cells assessed as reduction in amastigote number per cell after 72 hrs by DRAQ5 DNA dye based confocal microscopic analysis; assay type: functional, organism-based; details: H9c2, 72 h
[9] = test system: Trypanosoma cruzi; assay: Antitrypanosomal activity against Trypanosoma cruzi Tulahuen trypomastigote forms infected in monkey LLC-MK2 cells after 24 hrs by CellTiter-Glo luminescent cell viability assay; assay type: functional, organism-based; details: LLC-MK2, 24 h
[10] = test system: Trypanosoma cruzi; assay: Antitrypanosomal activity against Trypanosoma cruzi Tulahuen amastigote forms infected in rat H9c2 cells assessed as reduction in infected cells after 72 hrs by DRAQ5 DNA dye based confocal microscopic analysis; assay type: functional, organism-based; details: H9c2, 72 h
[11] = test system: Leishmania donovani; assay: Potency index, ratio of amphotericin B IC50 to test compound IC50 for Leishmania donovani MHOM/SD/62/1S-CL2D LdBOB axenic amastigotes harboring eGFP; assay type: functional
[12] = test system: Leishmania donovani; assay: Potency index, ratio of miltefosine IC50 to test compound IC50 for Leishmania donovani MHOM/SD/62/1S-CL2D LdBOB axenic amastigotes harboring eGFP; assay type: functional

| SMILES | pIC50 [1] | CC50 at 48 h [2] [µM] | pIC50 [3] | pIC50 [4] | pIC50 [5] | pIC50 [6] | pIC50 [7] | pIC50 [8] | pIC50 [9] | pIC50 [10] | Ratio IC50 [11] | Ratio IC50 [12] |
| --- | --- | --- | --- | --- | --- | --- | --- | --- | --- | --- | --- | --- |
| COc1ccc(-c2nc3ccccc3nc2-c2ccc(OC)cc2)cc1 | < 4.30 | > 100 | < 4.30 | < 4.30 | < 4.30 | < 4.30 | 4.50 | 5.00 | < 4.30 | 4.90 |  |  |
| Clc1ccc2nc(-c3ccccc3)c(-c3ccccc3)nc2c1 | < 4.30 | > 100 | < 4.30 | < 4.30 | < 4.30 | < 4.30 | 4.60 | 4.80 | < 4.30 | 4.70 |  |  |
| Clc1cc2nc(-c3ccccc3)c(-c3ccccc3)nc2cc1Cl | < 4.30 | > 100 | < 4.30 | < 4.30 | < 4.30 | < 4.30 | 4.40 | < 4.30 | < 4.30 | < 4.30 |  |  |
| Cc1ccc(-c2nc3cc(Cl)c(Cl)cc3nc2-c2ccccc2)cc1 | < 4.30 | > 100 | < 4.30 | < 4.30 | < 4.30 | < 4.30 | 4.70 | 5.00 | < 4.30 | 4.80 |  |  |
| CS(=O)(=O)c1ccc(-c2nc3ccc(Br)cc3nc2-c2ccc(Cl)cc2)cc1 | 5.60 | 2 | 5.90 | 5.70 | 6.49 | 5.40 | 5.90 | 5.70 | 7.22 | 5.70 | 5.3 | 26.3 |
| COc1ccc2nc(-c3ccc(Cl)cc3)c(-c3ccc([S+](C)[O-])cc3)nc2c1 (stereo unspecified) | 4.90 | 7.94 | 5.20 | 4.90 | 5.50 | 4.90 | 5.40 | 5.00 | 5.98 | 4.90 |  |  |
| CS(=O)(=O)c1ccc(-c2nc3ccc(Cl)cc3nc2-c2ccc(Cl)cc2)cc1 | 5.30 | 2 | 5.80 | 5.80 | 6.49 | 5.30 | 5.60 | 5.70 | 7.05 | 5.70 | 5.3 | 26.3 |
| C[S+]([O-])c1ccc(-c2nc3ccc(Cl)cc3nc2-c2ccc(Cl)cc2)cc1 (stereo unspecified) | 5.40 | 1.58 | 5.80 | 5.80 | 6.49 | 5.50 | 6.20 | 5.80 | 7.00 | 5.70 | 5.3 | 26.3 |
